Laboratory results taken from US12053465B2, “KCC2 expression enhancing compounds and uses thereof” (Whitehead Institute for Biomedical Research, priority 2017, dated 2024).

How the values were obtained:
immature mouse neurons = assay: Gramicidin-perforated patch recording of EGABA in DIV6-7 immature mouse neurons; assay type: cell-based
NKCC1 mRNA = assay: Quantitative RT-PCR of NKCC1 mRNA in organotypic mouse brain slices; assay type: cell-based
Experimental: (§1) Brain slices were also treated with the FLT3 inhibitors Crenolanib and XL-184. […] To assess whether increased KCC2 protein levels were due to increased gene transcription or enhanced protein stability, quantitative RT-PCR experiments were performed to measure the KCC2 mRNA level in KEEC-treated brain slices. […] In contrast, the expression of NKCC1, a chloride transporter that antagonizes KCC2 activity by shuttling Cl^− into the cell (44), was decreased by treatment with KEEC compounds (FIG. 8F).
(§2) Brain slice cultures were prepared from P1 neonatal mouse according to a protocol described by Antonio del Rio et al., Nature Protocols, 2010. Cerebrum slices (1 mm in thickness) were prepared from neonatal mouse brain, and were transferred to 6-well culture inserts with the pore size of 0.4 μm. The insert was placed in 6-well plates with 1 ml of culture medium. Three days after the initial culture, compounds and DMSO control were added to the medium. Alternately, in some experiments, brain slice cultures were prepared from P3 neonatal mouse according to a protocol described by Antonio del Rio et al., Nature Protocols, 2010. Cerebrum slices (1 mm in thickness) were prepared from neonatal mouse brain, and were transferred to 6-well culture inserts with the pore size of 0.4 μm. The insert was placed in 6-well plates with 1 ml of culture medium. The day after the initial culture, compounds and DMSO control were added to the medium. The medium with fresh compounds was used to replace old medium every other day. One week after drug treatment, the brain slices were harvested for Western blot or qRT-PCR analysis.
(§3) To prepare RNA samples from cultured organotypic brain slice, tissue samples were homogenized by passing through a 23 gauge needle for a number of times. Total RNA was extracted with Omega Total RNA kit and was reverse-transcribed into cDNA using the Invitrogen Superscript RT system and Oligo dT primer. SYBR green-based quantitative RT-PCR assay was performed to detect for the abundance of specific mRNA transcripts. The primer sequence for the detection of KCC2 expression in mouse brain samples are as follows: KCC2-Forward: […] (SEQ ID NO: 2); KCC2-Reverse: […] (SEQ ID NO: 3). The primer sequence for detection of NKCC1 mRNA are as follows: NKCC1-Forward: […] (SEQ ID NO: 3); NKCC1-Reverse: […] (SEQ ID NO: 4). The gene expression was calculated by normalizing the KCC2 data with the expression of housekeeping gene HDAC2 in every sample. HDAC2 expression was detected using the following primers: HDAC2-Forward: […] (SEQ ID NO: 5); HDAC2-Reverse: […] (SEQ ID NO: 6). Relative gene expression levels were calculated by normalizing KCC2 or NKCC1 expression in drug-treated groups with that in DMSO controls with the housekeeping gene HDAC being used as internal control.

[1] = tested on: KCC2 expression (KCC2-2A-luciferase reporter); assay: KCC2-2A-luciferase reporter compound screening with RTT KCC2 reporter neurons; assay type: cell-based, human; details: for B Score: MECP2-null RTT human KCC2 reporter neurons, LINCS, SMART, ICCB libraries, Luc/CTG normalized to in-plate DMSO, hit = B score >3
Experimental: The RTT KCC2-2A-luciferase reporter neurons were treated with the test compounds from the LINCS kinase inhibitor library and IRSF SMART compound library and incubated before being lysed. The cell lysate was divided into two parts to measure luciferase signal (KCC2 translation) and Cell-Titer Glow (CTG, amount of ATP). The luciferase signal was normalized to CTG for each well, and the Luc/CTG ratio was normalized to the in-plate DMSO negative control to calculate fold change ratio.
Additional screens for reporter activation in the MECP2-null RTT human KCC2 reporter neurons (isogenic to the WT reporter cells used above) were performed with the LINCS and SMART libraries as well as the ICCB known bioactive library and identified hits as compounds with B score >3.
The cells were dissociated with Accutase and resuspended in 10 ml neuronal differentiation medium to count cells. The cells were then diluted to the final density of 200,000 to 500,000 cells/ml. Matrigel was added to the cell suspension at a dilution ratio of 1:300 to promote cell adhesion after plating. AraC was added to cell suspension at the concentration of 2 μM to inhibit cell division. The cells were plated into 96-well plates with an automated cell seeding machine using the following protocol: The neuron flask was washed with PBS. The neurons were digested off the plate with Accutase for 30 minutes at 37° C. Next, the dissociated cells were collected and spun down at 750 rpm for 5 minutes. The cell pellet was dissociated by gentle trituration with P1000 pipet and the cells were resuspended with 10 ml of neuronal medium. Then, the cells were filtered through a 40 μm cell strainer (Falcon) to get rid of clumps. The resulting single-cell suspension was counted using a Countess automated cell counter (Invitrogen Countess Automated Cell Counter, Catalog no. C10227). The neurons were resuspended with neuronal medium to 10× of the destination density (100,000 cells to 400,000 cells per ml). The cells were plated with a multichannel pipette, or proceeded to the machine-plating protocol described below:
The day after cell seeding, small molecule compounds from the IRSF (International Rett Syndrome Foundation) library were prepared at a concentration of 1 mM and dispensed into a blank V-bottomed test plates at 2 μl per well. Compound solvent DMSO was included in every plate as control. Using a liquid handling robot, about 80 μl of culture medium were discarded. Neuronal medium in the volume of 200 μl was added to the V-bottom test plate that contained 2 μl of 1 mM compounds, and mixed with compounds by pipetting up-and-down 3 times. The medium that contained the 10 μM compounds was then applied to the neuronal cell culture and incubated for 2 weeks before cell lysis and luciferase assay were performed.
The cells were dissociated with Accutase, resuspended in 10 ml neuronal differentiation medium to count cells. the final cell seeding density was 20 k-40 k cells per well for 96-well plates, and ˜10 k cells per well for 384-well plates. Matrigel was added to the cell suspension at a dilution ratio of 1:300 to promote cell adhesion after plating. AraC were added to the cell suspension at the concentration of 0.5 μM to inhibit astroglial cell division. The cells were dispensed into 96-well or 384-well plates (Coming) using a BioTek EL406 plate dispenser. […] The neurons were incubated with the compounds at 37° C./5% CO2 for a week before the luciferase assay.
The cells used for luciferase assay were KCC2 reporter neurons differentiated for 4 weeks, and treated with drug in 96-well format for 2 weeks. Cell density was between 20 k-40 k cells per well.
On the day of the luciferase assay, the cells were washed with PBS for two times, and 100 μl of cell lysis buffer was applied to the washed cells. The cell plates were transferred to a rocker to shake for 10 minutes in order to fully lyse the cells.

KCC2 expression [2] = assay: Western blot of KCC2 in cultured human RTT neurons; assay type: cell-based
Experimental: Protein samples were collected from cultured brain slices or cultured neurons in 12-well format with RIPA lysis buffer (in mM: 150 NaCl, 25 Tris-HCl, 1 EDTA, 1% NP-40, 1% sodium deoxycholate, 0.1% SDS, with protein kinase inhibitor and protease inhibitor, pH adjusted to 7.6). A sonication step was applied to homogenize tissue and extract protein, followed by a 10 minute centrifugation at 4° C. […] The PVDF membrane was blocked for 30 minutes with 5% milk in TBS+0.1% Tween 20 (TBST), and incubated overnight at 4° C. with primary antibodies diluted in TBST-milk at the following concentrations: KCC2 (1:2000, Millipore), NKCC1 (1:1000, Iowa Hybridoma bank), α-Tubulin (1:4000, Abcam), GAPDH (1:3000, Abcam), Actin (1:2000, Sigma Aldrich #A2066). The membrane was rinsed with TBST three times to wash off excess antibodies, and then incubated in secondary HRP antibodies in TBST-milk at 1:5000 concentration.
The PVDF membrane was then stripped using the Re-blot plus strong solution (Millipore), and re-immunoblotted for NKCC1 (˜150 kDa) to acquire KCC2/NKCC1 ratio. The area and intensity of protein signal was determined using ImageJ. The relative KCC2 and NKCC1 expression were calculated by normalizing protein signal to GAPDH or Tubulin loading control.

KCC2 expression [3] = assay: Western blot of KCC2 in organotypic mouse brain slices; assay type: cell-based; details: organotypic neonatal mouse brain slices, treated 7 days, vs DMSO, MeBIO or medium-only control
KCC2 expression [4] = assay: Western blot of KCC2 in cultured WT human neurons; assay type: cell-based; details: cultured WT human neurons (WIBR1); Western blot
KCC2 mRNA = assay: Quantitative RT-PCR of KCC2 mRNA in organotypic mouse brain slices; assay type: cell-based
Experimental: as §1, §2, §3

NRSF/REST = details: glioblastoma cell line; via SIRT1 pathway (49); cited from earlier work
REST = assay: Western blot of REST in cultured human RTT neurons; assay type: cell-based
From the text: Two hit compounds Resveratrol and Piperine act on different pathways than the kinase inhibitors, activating the Sirtuin 1 (SIRT1) (49) and the transient receptor potential cation channel subfamily V member 1 (TRPV1) (50) signaling pathways, respectively.
Protein samples were collected from cultured brain slices or cultured neurons in 12-well format with RIPA lysis buffer (in mM: 150 NaCl, 25 Tris-HCl, 1 EDTA, 1% NP-40, 1% sodium deoxycholate, 0.1% SDS, with protein kinase inhibitor and protease inhibitor, pH adjusted to 7.6). A sonication step was applied to homogenize tissue and extract protein, followed by a 10 minute centrifugation at 4° C. The protein samples were mixed with NuPAGE LDS sample buffer, heated at 95° C. for 10 minutes, and then separated on NuPAGE 4-12% Bis-Tris gel and transferred to PVDF membrane. The PVDF membrane was blocked for 30 minutes with 5% milk in TBS+0.1% Tween 20 (TBST), and incubated overnight at 4° C. with primary antibodies diluted in TBST-milk at the following concentrations: KCC2 (1:2000, Millipore), NKCC1 (1:1000, Iowa Hybridoma bank), α-Tubulin (1:4000, Abcam), GAPDH (1:3000, Abcam), Actin (1:2000, Sigma Aldrich #A2066). The membrane was rinsed with TBST three times to wash off excess antibodies, and then incubated in secondary HRP antibodies in TBST-milk at 1:5000 concentration.

[5] = cultured human RTT neurons, Western blot
[6] = co-applied with EX-527 below the threshold for SIRT1 pathway inhibition
[7] = in the presence of a high concentration of SIRT1 pathway blocker EX-527, vs DMSO control

SMILES: COc1cc2nccc(Oc3ccc(NC(=O)C4(C(=O)Nc5ccc(F)cc5)CC4)cc3)c2cc1OC [XL-184, N′-[4-[(6,7-dimethoxy-4-quinolinyl)oxy]phenyl]-N-(4-fluorophenyl)-1,1-cyclopropanedicarboxamide]
- EGABA after treatment (immature mouse neurons; DIV6-7 immature mouse neurons, untreated about −50 mV): about −70 mV
- significant hyperpolarizing shift in EGABA (immature mouse neurons; DIV6 cultured immature mouse neurons): induces significant hyperpolarizing shift in EGABA
- NKCC1 mRNA level (NKCC1 mRNA): significant reduction in NKCC1 mRNA level
- B Score [1]: 3.25
- KCC2 expression (KCC2 expression [2]; [5]): significant enhancement of KCC2 expression
- KCC2 protein level (KCC2 expression [3]): significantly increased the KCC2 protein level
- KCC2 expression (KCC2 expression [4]): significant enhancement of KCC2 expression
- KCC2 mRNA level (KCC2 mRNA): significantly increased KCC2 expression

SMILES: CC1(COc2ccc3c(c2)ncn3-c2ccc3cccc(N4CCC(N)CC4)c3n2)COC1 [Crenolanib, 1-(2-{5-[(3-Methyloxetan-3-yl)methoxy]-1H-benzimidazol-1-yl}quinolin-8-yl)piperidin-4-amine]
- NKCC1 mRNA level (NKCC1 mRNA): significant reduction in NKCC1 mRNA level
- KCC2 expression (KCC2 expression [2]; [5]): significant enhancement of KCC2 expression
- KCC2 protein level (KCC2 expression [3]): significantly increased the KCC2 protein level
- KCC2 expression (KCC2 expression [4]): significant enhancement of KCC2 expression
- KCC2 mRNA level (KCC2 mRNA): significantly increased KCC2 expression

SMILES: O=C1Nc2ccccc2/C1=C1/Nc2ccccc2/C1=N\O [Indirubin-monoxime, (2Z,3E)-3-(hydroxyimino)-[2,3′-biindolinylidene]-2′-one]
- NKCC1 mRNA level (NKCC1 mRNA): significant reduction in NKCC1 mRNA level
- KCC2 expression (KCC2 expression [2]; [5]): increased KCC2 expression levels significantly
- KCC2 mRNA level (KCC2 mRNA): significantly increased KCC2 expression

SMILES: CCN(CC)CCNC(=O)c1c(C)[nH]c(/C=C2\C(=O)Nc3ccc(F)cc32)c1C [Sunitinib, N-(2-diethylaminoethyl)-5-[(Z)-(5-fluoro-2-oxo-1H-indol-3-ylidene)methyl]-2,4-dimethyl-1H-pyrrole-3-carboxamide]
- NKCC1 mRNA level (NKCC1 mRNA): significant reduction in NKCC1 mRNA level
- KCC2 expression (KCC2 expression [4]): significant enhancement of KCC2 expression
- KCC2 mRNA level (KCC2 mRNA): significantly increased KCC2 expression

SMILES: Oc1ccc(/C=C/c2cc(O)cc(O)c2)cc1 [Resveratrol, 3,5,4'-trihydroxy-trans-stilbene]
- B Score [1]: 12.65
- KCC2 reporter activity in RTT neurons ([1]; RTT KCC2-2A-luciferase reporter neurons vs in-plate DMSO): significant increase of KCC2 reporter activity
- KCC2 expression (KCC2 expression [2]; [6]): substantial increase in KCC2 expression
- concentration at which treatment significantly increases KCC2 expression (KCC2 expression [2]; cultured ESC-derived human RTT neurons, Western blot): 10 µM
- KCC2 expression (KCC2 expression [2]; [5]): increase KCC2 expression
- KCC2 expression (KCC2 expression [2]; [7]): neither KCC2 nor REST was changed
- expression of NRSF/REST (NRSF/REST): reduces expression of the neuronal gene repressor NRSF/REST
- level of REST (REST; [6]): reduction in the level of REST
- REST expression (REST; [7]): neither KCC2 nor REST was changed
